Measured values from patent publication US20240425453A1, “ISOINDOLINES AS PMS2 INHIBITORS” (NeoPhore Limited, priority 2021, published 2024).
Structures can show the parent of a compound that is named as a salt.

Each molecule was assayed against recombinant N-terminal PMS2 (residues 1-365) (Homo sapiens (Human), UniProt P54278) (assay: Fluorescence polarisation assay for PMS2). Details: 10 nM N-terminal PMS2, 5 nM fluorescent probe compound; 30 min pre-incubation, read after 1 hour at room temperature.
Chain of recombinant N-terminal PMS2 (residues 1-365) (P54278 1-365): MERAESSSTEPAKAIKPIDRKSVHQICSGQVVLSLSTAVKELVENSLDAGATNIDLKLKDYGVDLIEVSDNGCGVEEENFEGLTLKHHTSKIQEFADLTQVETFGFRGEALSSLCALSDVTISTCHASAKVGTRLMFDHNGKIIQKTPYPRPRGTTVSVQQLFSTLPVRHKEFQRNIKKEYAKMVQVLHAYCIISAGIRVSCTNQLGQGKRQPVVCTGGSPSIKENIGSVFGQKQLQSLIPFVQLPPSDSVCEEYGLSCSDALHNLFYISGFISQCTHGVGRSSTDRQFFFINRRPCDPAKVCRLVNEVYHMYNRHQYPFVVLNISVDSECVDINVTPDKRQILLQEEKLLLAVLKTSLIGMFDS
Type: binding

IC50	Compound
100 to 1000 nM	C=CC(=O)Nc1cccc2c1CN(C(=O)c1c(O)cc(O)cc1OCc1ccccc1)C2 [Example 1, N-(2-(2-(Benzyloxy)-4,6-dihydroxybenzoyl)isoindolin-4-yl)acrylamide]
< 100 nM	CN(C)C/C=C/C(=O)Nc1cccc2c1CN(C(=O)c1c(O)cc(O)cc1OCc1ccccc1)C2 [Example 2, (E)-N-(2-(2-(Benzyloxy)-4,6-dihydroxybenzoyl)isoindolin-4-yl)-4-(dimethylamino)but-2-enamide]
> 1000 nM	C=C(F)C(=O)Nc1cccc2c1CN(C(=O)c1c(O)cc(O)cc1OCc1ccccc1)C2 [Example 3, N-(2-(2-(Benzyloxy)-4,6-dihydroxy-benzoyl)isoindolin-4-yl)-2-fluoroacrylamide]
< 100 nM	C=CC(=O)Nc1cccc2c1CN(C(=O)c1c(O)cc(O)c(C)c1OCc1ccccc1)C2 [Example 4, N-(2-(2-(Benzyloxy)-4,6-dihydroxy-3-methylbenzoyl)isoindolin-4-yl)acrylamide]
> 1000 nM	C=C(F)C(=O)Nc1cccc2c1CN(C(=O)c1c(O)cc(O)c(C)c1OCc1ccccc1)C2 [Example 5, N-(2-(2-(Benzyloxy)-4,6-dihydroxy-3-methylbenzoyl)isoindolin-4-yl)-2-fluoroacrylamide]
< 100 nM	Cc1c(O)cc(O)c(C(=O)N2Cc3cccc(NC(=O)/C=C/CN(C)C)c3C2)c1OCc1ccccc1 [Example 6, (E)-N-(2-(2-(Benzyloxy)-4,6-dihydroxy-3-methylbenzoyl)isoindolin-4-yl)-4-(dimethylamino)but-2-enamide]
< 100 nM	C=CC(=O)Nc1cccc2c1CN(C(=O)c1c(O)cc(O)c(C)c1OCC1CCCCC1)C2 [Example 7, N-(2-(2-(Cyclohexylmethoxy)-4,6-dihydroxy-3-methylbenzoyl)isoindolin-4-yl) acrylamide]
< 100 nM	Cc1c(O)cc(O)c(C(=O)N2Cc3cccc(NC(=O)/C=C/CN4CCCC4)c3C2)c1OCC1CCCCC1 [Example 9, (E)-N-(2-(2-(Cyclohexylmethoxy)-4,6-dihydroxy-3-methylbenzoyl)isoindolin-4-yl)-4-(pyrrolidin-1-yl)but-2-enamide]
< 100 nM	Cc1c(O)cc(O)c(C(=O)N2Cc3cccc(NC(=O)/C=C/CN4CCOCC4)c3C2)c1OCC1CCCCC1 [Example 10, (E)-N-(2-(2-(cyclohexylmethoxy)-4,6-dihydroxy-3-methylbenzoyl)isoindolin-4-yl)-4-morpholinobut-2-enamide hydrochloride]
100 to 1000 nM	CC#CC(=O)Nc1cccc2c1CN(C(=O)c1c(O)cc(O)c(C)c1OCC1CCCCC1)C2 [Example 12, N-(2-(2-(Cyclohexylmethoxy)-4,6-dihydroxy-3-methylbenzoyl)isoindolin-4-yl)but-2-ynamide]
> 1000 nM	C/C=C/C(=O)Nc1cccc2c1CN(C(=O)c1c(O)cc(O)c(C)c1OCC1CCCCC1)C2 [Example 13, (E)-N-(2-(2-(Cyclohexylmethoxy)-4,6-dihydroxy-3-methylbenzoyl)isoindolin-4-yl)but-2-enamide]
< 100 nM	Cc1c(O)cc(O)c(C(=O)N2Cc3cccc(NC(=O)/C=C/CN(C)C)c3C2)c1OCC1CCCC1 [Example 14, (E)-N-[2-[2-(Cyclopentylmethoxy)-4,6-dihydroxy-3-methyl-benzoyl]isoindolin-4-yl]-4-(dimethylamino)but-2-enamide]
< 100 nM	C=CC(=O)Nc1ccc2c(c1)CN(C(=O)c1c(O)cc(O)c(C)c1OCC1CCCCC1)C2 [Example 16, N-[2-[2-(Cyclohexylmethoxy)-4,6-dihydroxy-3-methyl-benzoyl]isoindolin-5-yl]prop-2-enamide]
100 to 1000 nM	C=CC(=O)Nc1cccc2c1CN(C(=O)c1c(O)cc(O)c(C)c1OCC1CCCCC1)CC2 [Example 17, N-[2-[2-(Cyclohexylmethoxy)-4,6-dihydroxy-3-methyl-benzoyl]-3,4-dihydro-1H-isoquinolin-8-yl]prop-2-enamide]
< 100 nM	C=CC(=O)Nc1ccc2c(c1)CN(C(=O)c1c(O)cc(O)c(C)c1OCC1CCCCC1)CC2 [Example 18, N-[2-[2-(Cyclohexylmethoxy)-4,6-dihydroxy-3-methyl-benzoyl]-3,4-dihydro-1H-isoquinolin-7-yl]prop-2-enamide]
100 to 1000 nM	Cc1c(O)cc(O)c(C(=O)N2Cc3ccc(NC(=O)/C=C/CN(C)C)cc3C2)c1OCC1CCCCC1 [Example 19, (E)-N-[2-[2-(Cyclohexylmethoxy)-4,6-dihydroxy-3-methyl-benzoyl]isoindolin-5-yl]-4-(dimethylamino)but-2-enamide]

IC50	Compound
100 to 1000 nM	Cc1c(O)cc(O)c(C(=O)N2CCc3cccc(NC(=O)/C=C/CN(C)C)c3C2)c1OCC1CCCCC1 [Example 20, (E)-N-[2-[2-(Cyclohexylmethoxy)-4,6-dihydroxy-3-methyl-benzoyl]-3,4-dihydro-1H-isoquinolin-8-yl]-4-(dimethylamino)but-2-enamide]
< 100 nM	Cc1c(O)cc(O)c(C(=O)N2CCc3ccc(NC(=O)/C=C/CN(C)C)cc3C2)c1OCC1CCCCC1 [Example 21, (E)-N-[2-[2-(Cyclohexylmethoxy)-4,6-dihydroxy-3-methyl-benzoyl]-3,4-dihydro-1H-isoquinolin-7-yl]-4-(dimethylamino)but-2-enamide]
< 100 nM	CCOc1c(C)c(O)cc(O)c1C(=O)N1Cc2cccc(NC(=O)/C=C/CN(C)C)c2C1 [Example 22, (E)-4-(Dimethylamino)-N-[2-(2-ethoxy-4,6-dihydroxy-3-methyl-benzoyl)isoindolin-4-yl]but-2-enamide]
< 100 nM	Cc1c(O)cc(O)c(C(=O)N2Cc3cccc(NC(=O)/C=C/CN(C)C)c3C2)c1OCC(F)(F)F [Example 23, (E)-N-[2-[4,6-Dihydroxy-3-methyl-2-(2,2,2-trifluoroethoxy)benzoyl]isoindolin-4-yl]-4-(dimethylamino)but-2-enamide]
< 100 nM	Cc1c(O)cc(O)c(C(=O)N2Cc3cccc(NC(=O)/C=C/CN(C)C)c3C2)c1OCC1CC1 [Example 24, (E)-N-[2-[2-(cyclopropylmethoxy)-4,6-dihydroxy-3-methyl-benzoyl]isoindolin-4-yl]-4-(dimethylamino)but-2-enamide]
< 100 nM	COc1c(C)c(O)cc(O)c1C(=O)N1Cc2cccc(N(C)C(=O)/C=C/CN(C)C)c2C1 [Example 25, (E)-N-[2-(4,6-Dihydroxy-2-methoxy-3-methyl-benzoyl)isoindolin-4-yl]-4-(dimethylamino)-N-methyl-but-2-enamide]
100 to 1000 nM	COc1c(C)c(O)cc(O)c1C(=O)N1Cc2ccc(NC(=O)/C=C/CN(C)C)cc2C1 [Example 26, (E)-N-[2-(4,6-Dihydroxy-2-methoxy-3-methyl-benzoyl)isoindolin-5-yl]-4-(dimethylamino)but-2-enamide]
100 to 1000 nM	COc1c(C)c(O)cc(O)c1C(=O)N1Cc2ccc(N(C)C(=O)/C=C/CN(C)C)cc2C1 [Example 27, (E)-N-[2-(4,6-dihydroxy-2-methoxy-3-methyl-benzoyl)isoindolin-5-yl]-4-(dimethylamino)-N-methyl-but-2-enamide]
100 to 1000 nM	COc1c(C)c(O)cc(O)c1C(=O)N1CCc2ccc(NC(=O)/C=C/CN(C)C)cc2C1 [Example 28, (E)-N-[2-(4,6-dihydroxy-2-methoxy-3-methyl-benzoyl)-3,4-dihydro-1H-isoquinolin-7-yl]-4-(dimethylamino)but-2-enamide]
100 to 1000 nM	COc1c(C)c(O)cc(O)c1C(=O)N1CCc2ccc(N(C)C(=O)/C=C/CN(C)C)cc2C1 [Example 29, (E)-N-[2-(4,6-dihydroxy-2-methoxy-3-methyl-benzoyl)-3,4-dihydro-1H-isoquinolin-7-yl]-4-(dimethylamino)-N-methyl-but-2-enamide]
100 to 1000 nM	Cc1c(O)cc(O)c(C(=O)N2Cc3cccc(N(C)C(=O)/C=C/CN(C)C)c3C2)c1OCC1CC1 [Example 31, (E)-N-[2-[2-(Cyclopropylmethoxy)-4,6-dihydroxy-3-methyl-benzoyl]isoindolin-4-yl]-4-(dimethylamino)-N-methyl-but-2-enamide]
100 to 1000 nM	C=CC(=O)N(C)c1cccc2c1CN(C(=O)c1c(O)cc(O)c(C)c1OC)C2 [Example 32, N-[2-(4,6-dihydroxy-2-methoxy-3-methyl-benzoyl)isoindolin-4-yl]-N-methyl-prop-2-enamide]
< 100 nM	CCOc1c(C)c(O)cc(O)c1C(=O)N1Cc2cccc(N(C)C(=O)/C=C/CN(C)C)c2C1 [Example 33, (E)-4-(Dimethylamino)-N-(2-(2-ethoxy-4,6-dihydroxy-3-methylbenzoyl)isoindolin-4-yl)-N-methylbut-2-enamide]
100 to 1000 nM	COc1c(C)c(O)cc(O)c1C(=O)N1Cc2ccc(OC/C=C/C(=O)N(C)C)cc2C1 [Example 34, (E)-4-[2-(4,6-Dihydroxy-2-methoxy-3-methyl-benzoyl)isoindolin-5-yl]oxy-N,N-dimethyl-but-2-enamide]
100 to 1000 nM	COc1c(C)c(O)cc(O)c1C(=O)N1Cc2cccc(OC/C=C/C(=O)N(C)C)c2C1 [Example 35, (E)-4-((2-(4,6-Dihydroxy-2-methoxy-3-methylbenzoyl)isoindolin-4-yl)oxy)-N,N-dimethylbut-2-enamide]
100 to 1000 nM	C=C(CN1CCOCC1)C(=O)Nc1cccc2c1CN(C(=O)c1c(O)cc(O)c(C)c1OC)C2 [Example 37, N-(2-(4,6-Dihydroxy-2-methoxy-3-methylbenzoyl)isoindolin-4-yl)-2-(morpholinomethyl)acrylamide]

Compound	IC50
Cc1c(O)cc(O)c(C(=O)N2Cc3cccc(NC(=O)/C=C/CN(C)C)c3C2)c1OCC1CCCCC1 [Example 8, (E)-N-(2-(2-(cyclohexylmethoxy)-4,6-dihydroxy-3-methylbenzoyl)isoindolin-4-yl)-4-(dimethylamino)but-2-enamide]	< 100 nM
